Laboratory results from patent US20060166900A1, “Salt of morphine-6-glucuronide” (CeNeS Limited, priority 2002, published 2006).

Legend:
Format in all cases: physicochemical
[1] = Water content by Karl Fisher analysis on storage (Example 3)
Procedure: Water content (% w/w) by Karl Fisher analysis
(§1) Each test material was stored between 2-8*C prior to placing on stability. Each material was sub-divided into 900 mg aliquots, transferred to brown opaque HDPE plastic bottles and flushed with Argon prior to sealing. Sufficient samples were provided for each time point as well as spares for each storage condition. The samples were placed in appropriate incubators previously commissioned at storage conditions 25° C./60% RH, 40° C./75% RH and 60° C.
Water Content by Karl Fisher Analysis
Water content was determined in duplicate on an aliquot of equilibrated material (approximately 100 mg) using a Tritrino 720 KFS Titrator.

[2] = Visual appearance on storage (Example 3)
Procedure: as §1
The samples were stored for analysis according to the following table: […]

[3] = Stability indicating HPLC assay and related substances on storage (Example 3)
Procedure: Assay (% w/w) and related substances determination
as §1
Testing Procedures Test for Identity Content and Impurities
Testing was performed in duplicate (2×25 mg) in accordance with a stability indicating HPLC assay method. The assay results were reported as M6G as is, M6G as the anhydrous, solvent free material and the anhydrous solvent free material corrected for the salt form using the relevant conversion factor.

[4] = Colour of solution by visible spectrophotometry on storage (Example 3); settings: 5% w/v solution in water
Procedure: Colour of solution by UV spectrophotometry.
as §1
Colour by Visible Spectrophotometry
A 5% w/v solution of test material was prepared in water and the absorbance measured at 420 nm in a 1 cm silica cell using a Unicam UV4 Visible/UV spectrophotometer.

CN1CCC23c4c5ccc(O)c4OC2C(OC2OC(C(=O)O)C(O)C(O)C2O)C=CC3C1C5.CN1CCC23c4c5ccc(O)c4OC2C(OC2OC(C(=O)O)C(O)C(O)C2O)C=CC3C1C5.O=C(O)C=CC(=O)O (stereo not shown) [Morphine-6-glucuronide maleate]
Moisture ([1]; 1 month, 25° C./60% RH): 7.53 % w/w | Moisture ([1]; 1 month, 40° C./75% RH): 7.60 % w/w | Moisture ([1]; 1 month, 60° C.): 5.01 % w/w | Moisture ([1]; 3 months, 25° C./60% RH): 7.14 % w/w | Moisture ([1]; 3 months, 40° C./75% RH): 9.24 % w/w | Moisture ([1]; Initial): 6.14 % w/w | Appearance ([2]; 1 month, 25° C./60% RH): White crystalline powder | Appearance ([2]; 1 month, 40° C./75% RH): Pale yellow crystalline powder | Appearance ([2]; 1 month, 60° C.): Yellow crystalline powder | Appearance ([2]; 3 months, 25° C./60% RH): Pale yellow crystalline powder | Appearance ([2]; 3 months, 40° C./75% RH): Yellow crystalline powder | Appearance ([2]; Initial): White crystalline powder | Known Related Substances HN33177 ([3]; 1 month, 25° C./60% RH): 0.76% | Known Related Substances HN67003 ([3]; 1 month, 25° C./60% RH): 0.17% | Known Related Substances HN75083 ([3]; 1 month, 25° C./60% RH): 0.05% | M6G Assay, Anhydrous basis ([3]; 1 month, 25° C./60% RH): 86.66 % w/w | M6G Assay, As is basis ([3]; 1 month, 25° C./60% RH): 80.27 % w/w | M6G Assay, Corrected for the salt form ([3]; 1 month, 25° C./60% RH): 97.56 % w/w | Total Known ([3]; 1 month, 25° C./60% RH): 0.98% | Total Related Substances ([3]; 1 month, 25° C./60% RH): 1.39% | Total Unknown ([3]; 1 month, 25° C./60% RH): 0.41% | Known Related Substances HN33177 ([3]; 1 month, 40° C./75% RH): 0.65% | Known Related Substances HN67003 ([3]; 1 month, 40° C./75% RH): 0.94% | Known Related Substances HN75076 ([3]; 1 month, 40° C./75% RH): 0.03% | Known Related Substances HN75083 ([3]; 1 month, 40° C./75% RH): 0.03% | Known Related Substances Morphine ([3]; 1 month, 40° C./75% RH): 0.12% | M6G Assay, Anhydrous basis ([3]; 1 month, 40° C./75% RH): 83.28 % w/w | M6G Assay, As is basis ([3]; 1 month, 40° C./75% RH): 77.07 % w/w | M6G Assay, Corrected for the salt form ([3]; 1 month, 40° C./75% RH): 93.75 % w/w | Total Known ([3]; 1 month, 40° C./75% RH): 1.77% | Total Related Substances ([3]; 1 month, 40° C./75% RH): 4.80% | Total Unknown ([3]; 1 month, 40° C./75% RH): 3.03% | Known Related Substances HN33177 ([3]; 1 month, 60° C.): 0.50% | Known Related Substances HN67003 ([3]; 1 month, 60° C.): 1.20% | Known Related Substances HN75076 ([3]; 1 month, 60° C.): 0.14% | Known Related Substances HN75083 ([3]; 1 month, 60° C.): 0.02% | Known Related Substances Morphine ([3]; 1 month, 60° C.): 0.32% | M6G Assay, Anhydrous basis ([3]; 1 month, 60° C.): 80.36 % w/w | M6G Assay, As is basis ([3]; 1 month, 60° C.): 76.46 % w/w | M6G Assay, Corrected for the salt form ([3]; 1 month, 60° C.): 90.47 % w/w | Total Known ([3]; 1 month, 60° C.): 2.18% | Total Related Substances ([3]; 1 month, 60° C.): 6.09% | Total Unknown ([3]; 1 month, 60° C.): 3.91% | Known Related Substances HN33177 ([3]; 3 months, 25° C./60% RH): 0.52% | Known Related Substances HN67003 ([3]; 3 months, 25° C./60% RH): 0.58% | Known Related Substances HN75083 ([3]; 3 months, 25° C./60% RH): 0.06% | Known Related Substances Morphine ([3]; 3 months, 25° C./60% RH): 0.04% | M6G Assay, Anhydrous basis ([3]; 3 months, 25° C./60% RH): 85.11 % w/w | M6G Assay, As is basis ([3]; 3 months, 25° C./60% RH): 80.04 % w/w | M6G Assay, Corrected for the salt form ([3]; 3 months, 25° C./60% RH): 95.81 % w/w | Total Known ([3]; 3 months, 25° C./60% RH): 1.20% | Total Related Substances ([3]; 3 months, 25° C./60% RH): 3.55% | Total Unknown ([3]; 3 months, 25° C./60% RH): 2.35% | Known Related Substances HN33177 ([3]; 3 months, 40° C./75% RH): 0.50% | Known Related Substances HN67003 ([3]; 3 months, 40° C./75% RH): 1.68% | Known Related Substances HN75076 ([3]; 3 months, 40° C./75% RH): 0.40% | Known Related Substances Morphine ([3]; 3 months, 40° C./75% RH): 0.43% | M6G Assay, Anhydrous basis ([3]; 3 months, 40° C./75% RH): 78.73 % w/w | M6G Assay, As is basis ([3]; 3 months, 40° C./75% RH): 72.37 % w/w | M6G Assay, Corrected for the salt form ([3]; 3 months, 40° C./75% RH): 88.63 % w/w | Total Known ([3]; 3 months, 40° C./75% RH): 3.01% | Total Related Substances ([3]; 3 months, 40° C./75% RH): 9.94% | Total Unknown ([3]; 3 months, 40° C./75% RH): 6.93% | drop in assay compared to the initial values ([3]; 3 months, 40° C./75% RH): around 10% | Known Related Substances HN33177 ([3]; Initial): 0.76% | Known Related Substances HN67003 ([3]; Initial): 0.04% | Known Related Substances HN75083 ([3]; Initial): 0.05% | M6G Assay, Anhydrous basis ([3]; Initial): 88.28 % w/w | M6G Assay, As is basis ([3]; Initial): 83.61 % w/w | M6G Assay, Corrected for the salt form ([3]; Initial): 99.40 % w/w | Total Known ([3]; Initial): 0.85% | Total Related Substances ([3]; Initial): 0.85% | Total Unknown ([3]; Initial): 0.00% | Colour ([4]; 1 month, 25° C./60% RH): 0.084 Abs@420 nm | Colour ([4]; 1 month, 40° C./75% RH): 0.297 Abs@420 nm | Colour ([4]; 1 month, 60° C.): 0.739 Abs@420 nm | Colour ([4]; 3 months, 25° C./60% RH): 0.209 Abs@420 nm | Colour ([4]; 3 months, 40° C./75% RH): 0.879 Abs@420 nm | Colour ([4]; Initial): 0.017 Abs@420 nm
